Assay results: article PMC9605374 (Marine Drugs, 2022)
Read-outs that look alike come from different tables or passages of the source.

How the values were obtained:
p-gp in PC3-DR cells = experiment: Western blotting, p-gp expression; assay type: cell-based, human; settings: 48 h, up to 6 µM
Description: (§1) Number of replicates n = 3. […] Viability was measured using an MTT assay. Number of replicates n = 3.
It is important to note that a reduction in p-gp activity could be conditioned by p-gp degradation or cell death-related processes. Consequently, using a Western blotting analysis, we measured p-gp expressional levels in the treated PC3-DR cells. […] Thus, the observed effect on p-gp activity seems to be exclusively related to the interaction of NB with p-gp rather than result from any cell death-related events.
The Western blot assay was executed as previously described: 1 × 10^6 cells were seeded in Petri dishes (ø 6 cm, 5 mL/dish) and incubated overnight. On the next day, the cells were treated with the compounds in fresh culture media (5 mL/dish) for the indicated time. Next, cells were harvested with a cell scraper and lysed in lysis buffer including protease and phosphatase inhibitors cocktail (Roche, Mannheim, Germany). Cell debris were removed from the protein lysates via centrifugation. Afterwards, the cell-free protein mixtures were separated in gradient ready-made Mini-PROTEAN® TGX Stain-Free^TM gels (Bio-Rad, Hercules, CA, USA) using SDS-PAGE (sodium dodecylsulfate polyacrylamide gel electrophoresis). Then, the proteins were blotted onto ø 0.2 µm pore PVDF membrane. […] The signals were detected using the ECL chemiluminescence system (Thermo Scientific, Rockford, IL, USA).

22Rv1 = experiment: MTT assay, cell viability; assay type: cell-based; settings: Homo sapiens, 22Rv1, 48 h of treatment, mean ± SD
Text: (§2) To examine the anticancer potential and selectivity of NB, we used a panel of six human prostate cancer cell lines, harboring different levels of treatment resistance to representatively reflect the heterogeneity of the disease. […] Additionally, four human noncancer cells lines were utilized in order to determine the selectivity of NB towards prostate cancer cells, i.e., prostate noncancer PNT2 and RWPE-1 cells, human embryonic kidney HEK 293T cells, and human fibroblasts MRC-9. The different cell lines were treated with NB and the cell viability was examined using MTT assay (Figure 1). The mean IC50 of NB and docetaxel (used as a reference substance) in noncancerous cell lines was divided by the mean IC50 in the prostate cancer cell lines to determine the selectivity index (SI).
(§3) The MTT assay was used to monitor the effect of the drugs on cell viability in terms of metabolic activity, as previously reported. First, preincubation of the cells in 96-well plates (6 × 10^3 cells/well in 100 μL/well) was performed overnight in the correspondent culture medium. Next, the medium was exchanged for fresh medium containing the investigated compounds or a vehicle (100 μL/well). Cells were then incubated for 48 h, unless otherwise stated. Then, 10 μL/well of 3-(4,5-dimethylthiazol-2-yl)-2,5-diphenyltetrazolium bromide reagent (MTT, 5 mg/mL) were added. After 2–4 h of additional incubation the media was removed, and the plates were dried. Finally, 50 μL/well of DMSO were added to solve the formed formazan crystals produced by the metabolic active cells and Infinite F200PRO reader (TECAN, Männedorf, Switzerland) was used to measure the cell viability. The results were proceeded with a GraphPad Prism software v.9.1.1 (GraphPad Software, San Diego, CA, USA). Cells treated with the solvent of the drugs alone were used as a control (100% alive cells). The effect of the drugs on cell viability is represented as IC50.

PNT2 = experiment: MTT assay, cell viability; assay type: cell-based; settings: Homo sapiens, PNT2, 48 h of treatment, mean ± SD
Text: as §2, §3

VCaP = experiment: MTT assay, cell viability; assay type: cell-based; settings: Homo sapiens, 48 h of treatment, mean ± SD
Text: as §2, §3

HEK293 = experiment: MTT assay, cell viability; assay type: cell-based; settings: Homo sapiens, HEK293, 48 h of treatment, mean ± SD
Text: as §2, §3

RWPE-1 = experiment: MTT assay, cell viability; assay type: cell-based; settings: Homo sapiens, RWPE-1, 48 h of treatment, mean ± SD
Text: as §2, §3

DU145 = experiment: MTT assay, cell viability; assay type: cell-based; settings: Homo sapiens, DU-145, DU145, 48 h of treatment, mean ± SD
Text: as §2, §3

MRC-9 = experiment: MTT assay, cell viability; assay type: cell-based; settings: Homo sapiens, MRC9, MRC-9, 48 h of treatment, mean ± SD
Text: as §2, §3

LNCaP [1] = experiment: MTT assay, cell viability; assay type: cell-based; settings: Homo sapiens, 48 h of treatment, mean ± SD
Text: as §2, §3

PC3 = experiment: MTT assay, cell viability; assay type: cell-based; settings: Homo sapiens, PC-3, PC3, 48 h of treatment, mean ± SD
Text: as §2, §3

PC3-DR cells = experiment: MTT assay with or without tariquidar pretreatment; assay type: cell-based, human; settings: 48 h, tariquidar 50 nM 30 min pretreatment
Description: as §1
As a next step, we investigated how NB interacts with p-gp. P-gp activity can be reduced in two distinct ways: (i) competitive inhibition through direct binding to the active pocket as the ligand itself; and (ii) allosteric/noncompetitive inhibition reducing the activity of a protein through binding to allosteric/regulatory sites or other means. […] Therefore, docetaxel binds to p-gp (while being excreted from the cell), competitively inhibiting p-gp-mediated calcein-AM excretion, which leads to calcein accumulation, resulting in more intense green fluoresce. To elucidate the mechanism of p-gp inhibition by NB (competitive vs. allosteric/noncompetitive inhibition), we co-treated PC3-DR cells with tariquidar (TQD), a selective noncompetitive p-gp inhibitor and NB, and examined the effect on cellular viability (Figure 8C). […]
The MTT assay was used to monitor the effect of the drugs on cell viability in terms of metabolic activity, as previously reported. […] Finally, 50 μL/well of DMSO were added to solve the formed formazan crystals produced by the metabolic active cells and Infinite F200PRO reader (TECAN, Männedorf, Switzerland) was used to measure the cell viability. […]

PC-3 = tested on: PC-3; design: method as in PMID 27355960; settings: cited from earlier work
splenocytes = tested on: splenocytes; design: method as in PMID 27355960; settings: cited from earlier work
LNCaP [2] = tested on: LNCaP; design: method as in PMID 27355960; settings: cited from earlier work
PC3-DR = experiment: MTT assay, cell viability; assay type: cell-based, human
Text: as §2, §3

Q: With `COc1ccc(C2SSC34CC5(O)C(Cl)C=CC(O)C5ON3C(=O)C2N(C)C4=O)c(O)c1OC` (stereo not shown) [NB, N-methylpretrichodermamide B] as the compound, how does the p-gp expression (p-gp in PC3-DR cells) read?
A: The p-gp expression was “no significant changes in p-gp expression”.

Q: What about the IC50 (22Rv1) of the same compound?
A: The IC50 was 3.02 ± 2.5 µM.

Q: And the IC50 (PNT2)?
A: Its IC50 is 25.1 ± 5.92 µM.

Q: What about the IC50 (VCaP) of the same compound?
A: The IC50 was 0.143 ± 0.145 µM.

Q: What about the IC50 (HEK293) of the same compound?
A: Its IC50 is 9.3 ± 1.57 µM.

Q: What about the IC50 (RWPE-1) of the same compound?
A: Its IC50 is 16.4 ± 1.87 µM.

Q: What about the IC50 (DU145) of the same compound?
A: The IC50 was 13 ± 2.69 µM.

Q: What about the IC50 (MRC-9) of the same compound?
A: Its IC50 is 11.1 ± 4.3 µM.

Q: And the IC50 (LNCaP [1])?
A: Its IC50 is 12.2 ± 2.97 µM.

Q: What about the IC50 (PC3) of the same compound?
A: Its IC50 is 6.03 ± 1.18 µM.

Q: What about the “cytotoxicity when co-treated with TQD” value (PC3-DR cells) of the same compound?
A: The value was “increased”.

Q: What about the IC50 (PC-3) of the same compound?
A: Its IC50 is 5.11 µM.

Q: What about the “ID50, cytotoxic activity in splenocytes” value (splenocytes) of the same compound?
A: Its value is 62.1 µM.

Q: And the IC50 (LNCaP [2])?
A: The IC50 was 1.76 µM.

Q: And the “IC50 in PC3-DR compared to the parental PC3 cells” value (PC3-DR; 48 h)?
A: Its value is “twofold lower”.

Q: And the IC50 (PC3-DR; Homo sapiens, PC3-DR, 48 h of treatment, mean ± SD)?
A: Its IC50 is 3.63 ± 1.03 µM.
